Data as given in patent publication US5306710A, “Method for treating endotoxin shock with CRF” (Regents of the University of California, priority 1992, dated 1994).
No end group written: not given here.

Columns and labels:
[1] = test system: rat brain after cold injury (vascular permeability); assay: Freeze (cold) injury to brain, Monastral blue vascular leakage; type: in vivo
Text: An in vivo model of injury to study brain edema has been developed as a reproducible edema model, which has the features of immediate cortical damage followed by the subsequent development of brain edema. This model is described by Chan et al., Brain Research 277, pp. 329-337 (1983). The model uses rats which are anesthetized. A 2.5 cm incision is made over the sagittal suture and the bone of the right hemisphere exposed. A 60 mm^2 plate attached to a brass cup filled with dry ice-acetone mixture, with a temperature of -50° C., is applied to the rat skull for one minute. The animals are sacrificed at various intervals after the onset of cold-injury. A dye is administered intravenously before the freezing. Cortical slices are then obtained of the brain.
16 male rats were randomly divided into eight pairs and one rat in each pair received either saline or CRF (subcutaneously twice at 30 μg/kg, 30 min and 10 min before cold injury). The animals were anesthetized with sodium pentobarbital, 60 mg/kg intraperitoneally, and injected with Monastral blue, 60 mg/kg intravenously. A cold probe was applied onto the skull for […] and the brains taken out 1 hour after cold injury. The staining of brain tissues with Monastral blue, a colloidal pigment that gets trapped between the albuminal surface of the endothelial cell and the basement membrane, was proportional to the degree of vascular leakage. The results from the first pair are shown as FIG. 1.
The size of the lesion, measured as area in mm^2, and the degree of staining intensity, were quantified using an image-analysis software program called JAVA (Jandel Corporation, San Rafeal, Calif.). The stain intensity, given in arbitrary units, was internally calibrated using Monastral blue solutions (1-30 mg/ml) placed on white filter paper. Values are mean ±S. E. M.

[2] = Vascular leakage produced by PAF-acether injected subcutaneously into the abdomen; type: in vivo, rat; conditions: CRF 30 μg/kg s.c. 30 min before PAF-acether 1 μg/0.1 ml/rat s.c.; muscle removed 0.5 hr later
Description: (§1) CRF: 30 μg/kg s.c. injected 30 min before subcutaneous
(§2) injection of PAF-acether (1 μg/0.1 ml/rat) into the
(§3) abdomen; muscle removed 0.5 hr later.

[3] = test system: PAF-acether; assay: as above; type: in vivo, rat; conditions: CRF 30 μg/kg s.c. 30 min before PAF-acether
Description: as §1, §2, §3

[4] = test system: rat pawskin; conditions: mediators injected into the rat pawskin; previously shown; cited from earlier work
[5] = test system: rat brain after cold injury (brain edema); assay: Freeze injury to cerebral cortex, water and sodium content as index of brain edema; type: in vivo; conditions: CRF 30 μg/kg s.c. 2×, tissues 3 hr after cold injury, ± S.E.M., N = 5
Description: In a second set of experiments, the brain surface, namely the cerebral cortex, was injured by freezing and the water and sodium content were measured in the cerebral cortex and in the basal ganglia, a part of the brain away from the freeze zone. The water and sodium content of the brain tissue served as an index of brain edema. After freeze injury, the water and sodium content of the cerebral cortex were evaluated relative to non-frozen tissues. CRF administered in two separate doses of 30 μg/kg subcutaneously, one dose 15 min. before the injury and the second dose 90 min. after the first dose, inhibited the two indices of brain edema.
Male SpragueDawley rats, 300-325 g, anesthetized with
ketamineacepromazine, were injected saline or CRF (30 μg/kg s.c.
2×) and injury to cerebral cortex was produced by applying a cold
probe to the skull for 1 min. Brain tissues were obtained 3 hr later and
analyzed for water and sodium content.

[6] = test system: rat abdominal muscle after celiotomy (vascular leakage); assay: Vascular leakage after celiotomy (4 cm midline incision through abdominal muscle wall), Monastral blue; type: in vivo; conditions: for Area / Intensity / Lesion Size: tissues 0.5 hr after surgery
Description: Experiments were conducted on male Sprague-Dawley rats 243±15 gm (S. D., Simonsen Labs., Gilroy, Calif.) anesthetized with sodium pentobarbital, 60 mg/kg i.p. Monastral blue, 60 mg/kg i.v., was injected 0.2 ml/100 g, 3 min. before a 4 cm midline incision through the abdominal muscle wall (celiotomy). Saline or CRF was administered to randomizd pairs with N=8 rats per group. The size of the lesion, measured as area in mm^2, an its light intensity, were quantified using the JAVA image-analysis software program. The light intensity, given in arbitrary units, was internally calibrated using Monastral blue solutions (1-30 mg/ml) placed on white filter paper. Values are mean ±S. E. M. FIG. 2 illustrates the respective amount of vascular permeability for one pair of rats (control and treated). Tables III and IV set out data from these experiments.
CRF: injected at various doses subcutaneously 30 min
before a 4 cm midline incision, tissues taken 0.5 hr
CRF: 30 μg/kg s.c. injected 2 hr before a 4 cm midline
incision, tissues taken 0.5 hr after surgery

[7] = test system: blood pressure; conditions: prior art report; cited from earlier work
[8] = test system: ACTH; conditions: prior art report; cited from earlier work
[9] = CRF 15 μg/kg s.c. 30 min before incision
[10] = CRF 30 μg/kg s.c. 30 min before incision
[11] = CRF 30 μg/kg s.c. 2 hr before incision
[12] = CRF 60 μg/kg s.c. 30 min before incision

**Q.** For “Corticotropin-Releasing Factor (SEEPPISLDLTFHLLREVLEMARAEQLAQQAHSNRKLMEII; not fully specified; ends and bridges not checked; UniProt P06850 154-194, looked up) [CRF]”, which “blinded observer's correct assignment of brains to saline or CRF group” value ([1]; eight pairs of rats, more damaged vs less damaged brain) is on record?
**A.** The value was 8 out of 8.

**Q.** And the “lesion size relative to that of the saline-treated group” value ([1]; rat, CRF 30 μg/kg s.c. twice before cold injury)?
**A.** Its value is 44%.

**Q.** And the “Intensity (stain intensity)” value ([1]; rat, CRF 30 μg/kg s.c. twice, 30 min and 10 min before cold injury, brains taken 1 hour after injury, mean ± S.E.M.)?
**A.** Its value is 2.0 ± 0.05 arbitrary units.

**Q.** What about the Intensity [2] of the same substance?
**A.** The Intensity was 1.4 ± 0.05.

**Q.** And the “muscle lesion size relative to that of the saline-treated control group” value [3]?
**A.** The value was 44%.

**Q.** What about the “effect on edema-producing properties of inflammatory mediators (serotonin, substance P, bradykinin, neurotensin, histamine)” value [4] of the same substance?
**A.** Its value is “antagonize the edema-producing properties of these mediators”.

**Q.** And the “SODIUM, cerebral cortex” value ([5]; injured cerebral cortex)?
**A.** Its value is 271 ± 8 mEg/kg dry wt.

**Q.** And the “WATER CONTENT, cerebral cortex” value ([5]; injured cerebral cortex)?
**A.** The value was 77 ± 4%.

**Q.** And the “SODIUM, basal ganglia” value ([5]; non-injured basal ganglia)?
**A.** Its value is 215 ± 9 mEg/kg dry wt.

**Q.** And the “WATER CONTENT, basal ganglia” value ([5]; non-injured basal ganglia)?
**A.** Its value is 76 ± 1%.

**Q.** And the “lesion size relative to that of the saline-treated group” value [6, 9]?
**A.** The value was 63%.

**Q.** And the Area [6, 9]?
**A.** Its Area is 505 ± 16 mm^2.

**Q.** What about the Intensity [6, 9] of the same substance?
**A.** The Intensity was 2.0 ± 0.03 arbitrary units.

**Q.** What about the “Lesion Size” value [6, 9] of the same substance?
**A.** The value was 1031 ± 44.

**Q.** What about the “lesion size relative to that of the saline-treated group” value [6, 10] of the same substance?
**A.** The value was 42%.

**Q.** What about the Area [6, 10] of the same substance?
**A.** Its Area is 361 ± 18 mm^2.

**Q.** What about the Intensity [6, 10] of the same substance?
**A.** The Intensity was 1.9 ± 0.05 arbitrary units.

**Q.** And the “Lesion Size” value [6, 10]?
**A.** Its value is 676 ± 47.

**Q.** And the “lesion size relative to that of the saline-treated group” value [6, 11]?
**A.** The value was 59%.

**Q.** What about the Area [6, 11] of the same substance?
**A.** The Area was 477 ± 31 mm^2.

**Q.** And the Intensity [6, 11]?
**A.** Its Intensity is 1.9 ± 0.03 arbitrary units.

**Q.** What about the “Lesion Size” value [6, 11] of the same substance?
**A.** The value was 919 ± 51.

**Q.** What about the “lesion size relative to that of the saline-treated group” value [6, 12] of the same substance?
**A.** Its value is 29%.

**Q.** And the Area [6, 12]?
**A.** The Area was 257 ± 3 mm^2.

**Q.** And the Intensity [6, 12]?
**A.** Its Intensity is 1.8 ± 0.05 arbitrary units.

**Q.** And the “Lesion Size” value [6, 12]?
**A.** Its value is 468 ± 19.

**Q.** With “oCRF: ovine (sheep) CRF, synthetic, disclosed in U.S. Pat. No. 4,415,558 (SQEPPISLDLTFHLLREVLEMTKADQLAQQAHSNRKLLDIA; not fully specified; ends and bridges not checked; UniProt P01142 148-188, looked up)” as the substance, how does the “effect on blood pressure” value [7] read?
**A.** The value was “lower blood pressure”.

**Q.** For “sauvagine (QGPPISIDLSLELLRKMIEIEKQEKEKQQAANNRLLLDTI; not fully specified; ends and bridges not checked; UniProt P01144 1-40, looked up) [40 amino acid peptide generally similar to CRF]”, which “effect on ACTH secretion” value [8] is on record?
**A.** Its value is “stimulating the secretion of ACTH and -endorphin”.

**Q.** And the “effect on blood pressure” value [7]?
**A.** The value was “lowering blood pressure in mammals”.
